Data from ChEMBL document CHEMBL2440076, “New triarylpyrazoles as broad-spectrum anticancer agents: design, synthesis, and biological evaluation” (Eur J Med Chem, 2013).

Columns and labels:
NCI-H322M [1] = test: Growth inhibition of human NCI-H322M cells assessed as cell growth at 10 uM after 48 hrs by sulforhodamine B assay; assay type: functional; conditions: read-out: Activity
CCRF-CEM [2] = test: Growth inhibition of human CCRF-CEM cells assessed as cell growth at 10 uM after 48 hrs by sulforhodamine B assay; assay type: functional; conditions: read-out: Activity
CAKI-1 = test: Growth inhibition of human CAKI-1 cells assessed as cell growth at 10 uM after 48 hrs by sulforhodamine B assay; assay type: functional; conditions: CAKI-1, 48 h, read-out: Activity
K562 [3] = test: Growth inhibition of human K562 cells assessed as cell growth at 10 uM after 48 hrs by sulforhodamine B assay; assay type: functional; conditions: K562, 48 h, read-out: Activity
BT-549 [4] = test: Growth inhibition of human BT549 cells assessed as cell growth at 10 uM after 48 hrs by sulforhodamine B assay; assay type: functional; conditions: BT-549, 48 h, read-out: Activity
NCI-H522 = test: Growth inhibition of human NCI-H522 cells after 48 hrs by sulforhodamine B assay; assay type: functional; conditions: NCI-H522, 48 h
K562 [5] = test: Growth inhibition of human K562 cells after 48 hrs by sulforhodamine B assay; assay type: functional; conditions: K562, 48 h
UACC-62 = test: Growth inhibition of human UACC62 cells assessed as cell growth at 10 uM after 48 hrs by sulforhodamine B assay; assay type: functional; conditions: UACC-62, 48 h, read-out: Activity
BT-549 [6] = test: Growth inhibition of human BT549 cells after 48 hrs by sulforhodamine B assay; assay type: functional; conditions: BT-549, 48 h
IGROV-1 [7] = test: Growth inhibition of human IGROV1 cells assessed as cell growth at 10 uM after 48 hrs by sulforhodamine B assay; assay type: functional; conditions: IGROV-1, 48 h, read-out: Activity
DU-145 [8] = test: Growth inhibition of human DU145 cells after 48 hrs by sulforhodamine B assay; assay type: functional; conditions: DU-145, 48 h
SW-620 = test: Growth inhibition of human SW620 cells after 48 hrs by sulforhodamine B assay; assay type: functional; conditions: SW-620, 48 h
CCRF-CEM [9] = test: Growth inhibition of human CCRF-CEM cells after 48 hrs by sulforhodamine B assay; assay type: functional
NCI-H322M [10] = test: Growth inhibition of human NCI-H322M cells after 48 hrs by sulforhodamine B assay; assay type: functional
ACHN = test: Growth inhibition of human ACHN cells assessed as cell growth at 10 uM after 48 hrs by sulforhodamine B assay; assay type: functional; conditions: read-out: Activity
UO-31 = test: Growth inhibition of human UO31 cells after 48 hrs by sulforhodamine B assay; assay type: functional; conditions: UO-31, 48 h
MCF7 [11] = test: Growth inhibition of human MCF7 cells after 48 hrs by sulforhodamine B assay; assay type: functional; conditions: MCF7, 48 h
RXF 393 [12] = test: Growth inhibition of human RXF393 cells assessed as cell growth at 10 uM after 48 hrs by sulforhodamine B assay; assay type: functional; conditions: RXF 393, 48 h, read-out: Activity
KM12 = test: Growth inhibition of human KM12 cells after 48 hrs by sulforhodamine B assay; assay type: functional, cell-based; conditions: KM12, 48 h
RXF 393 [13] = test: Growth inhibition of human RXF393 cells after 48 hrs by sulforhodamine B assay; assay type: functional; conditions: RXF 393, 48 h
OVCAR-4 = test: Growth inhibition of human OVCAR4 cells assessed as cell growth at 10 uM after 48 hrs by sulforhodamine B assay; assay type: functional; conditions: OVCAR-4, 48 h, read-out: Activity
OVCAR-5 [14] = test: Growth inhibition of human OVCAR5 cells after 48 hrs by sulforhodamine B assay; assay type: functional; conditions: OVCAR-5, 48 h
NCI-H460 = test: Growth inhibition of human NCI-H460 cells after 48 hrs by sulforhodamine B assay; assay type: functional; conditions: NCI-H460, 48 h
OVCAR-8 = test: Growth inhibition of human OVCAR8 cells after 48 hrs by sulforhodamine B assay; assay type: functional; conditions: OVCAR-8, 48 h
A549 = test: Growth inhibition of human A549/ATCC cells after 48 hrs by sulforhodamine B assay; assay type: functional; conditions: A549, 48 h
UACC-257 = test: Growth inhibition of human UACC257 cells assessed as cell growth at 10 uM after 48 hrs by sulforhodamine B assay; assay type: functional; conditions: UACC-257, 48 h, read-out: Activity
A498 = test: Growth inhibition of human A498 cells after 48 hrs by sulforhodamine B assay; assay type: functional, cell-based; conditions: A498, 48 h
MCF7 [15] = test: Growth inhibition of human MCF7 cells assessed as cell growth at 10 uM after 48 hrs by sulforhodamine B assay; assay type: functional; conditions: MCF7, 48 h, read-out: Activity
U-251 = test: Growth inhibition of human U251 cells assessed as cell growth at 10 uM after 48 hrs by sulforhodamine B assay; assay type: functional; conditions: U-251, 48 h, read-out: Activity
DU-145 [16] = test: Growth inhibition of human DU145 cells assessed as cell growth at 10 uM after 48 hrs by sulforhodamine B assay; assay type: functional; conditions: DU-145, 48 h, read-out: Activity
SN12C = test: Growth inhibition of human SN12C cells assessed as cell growth at 10 uM after 48 hrs by sulforhodamine B assay; assay type: functional; conditions: read-out: Activity
RPMI-8226 = test: Growth inhibition of human RPMI8226 cells after 48 hrs by sulforhodamine B assay; assay type: functional, cell-based; conditions: RPMI-8226, 48 h
[17] = Growth inhibition of human Hs 578T cells assessed as cell growth at 10 uM after 48 hrs by sulforhodamine B assay; assay type: functional; conditions: read-out: Activity
IGROV-1 [18] = test: Growth inhibition of human IGROV1 cells after 48 hrs by sulforhodamine B assay; assay type: functional; conditions: IGROV-1, 48 h
OVCAR-5 [19] = test: Growth inhibition of human OVCAR5 cells assessed as cell growth at 10 uM after 48 hrs by sulforhodamine B assay; assay type: functional; conditions: OVCAR-5, 48 h, read-out: Activity
[20] = read-out: LC50 (the source's name)

## COc1cc(-c2nn(-c3cccc(NC(=O)Nc4cccc(C(F)(F)F)c4)c3)cc2-c2ccncc2)ccc1Cl
NCI-H322M [1]
  growth at 10 µM: 21.7%
CCRF-CEM [2]
  growth at 10 µM: -9.68%
CAKI-1
  growth at 10 µM: 11.5%
K562 [3]
  growth at 10 µM: 1.6%
BT-549 [4]
  growth at 10 µM: -15.4%
NCI-H522
  GI50: 714 nM
  LC50 (concentration killing 50% of cells): > 50000 nM
  TGI: 2430 nM
K562 [5]
  GI50: 584 nM
  TGI: > 50000 nM
K562 [5]; [20]
  CC50: > 50000 nM
UACC-62
  growth at 10 µM: -76.1%
BT-549 [6]
  GI50: 1250 nM
  LC50 (50% lethal concentration): 50000 nM
  TGI: 3810 nM
IGROV-1 [7]
  growth at 10 µM: 14%
DU-145 [8]
  GI50: 1670 nM
  LC50: > 50000 nM
  TGI: > 50000 nM
SW-620
  GI50: 1230 nM
  TGI: 14300 nM
SW-620; [20]
  CC50: 50000 nM
CCRF-CEM [9]
  GI50: 945 nM
  LC50: > 50000 nM
NCI-H322M [10]
  GI50: 1210 nM
  TGI: 4730 nM
NCI-H322M [10]; [20]
  CC50: > 50000 nM
ACHN
  growth at 10 µM: 6.54%
UO-31
  GI50: 702 nM
  TGI: 3210 nM
UO-31; [20]
  CC50: > 50000 nM
MCF7 [11]
  GI50: 751 nM
  LC50: > 50000 nM
  TGI: 7720 nM
RXF 393 [12]
  growth at 10 µM: -69.8%
KM12
  GI50: 573 nM
  IC50: 570 nM
  TGI: 1980 nM
KM12; [20]
  CC50: > 50000 nM
RXF 393 [13]
  GI50: 777 nM
  LC50 (concentration killing 50% of cells): 4830 nM
  TGI: 1940 nM
OVCAR-4
  growth at 10 µM: 11.1%
OVCAR-5 [14]
  GI50: 1270 nM
  LC50 (concentration killing 50% of cells): > 50000 nM
  TGI: 6450 nM
NCI-H460
  GI50: 763 nM
  LC50: > 50000 nM
  TGI: 3530 nM
OVCAR-8
  GI50: 739 nM
  TGI: 2700 nM
OVCAR-8; [20]
  CC50: > 50000 nM
A549
  GI50: 794 nM
  LC50 (concentration killing 50% of starting cells): > 50000 nM
  TGI: > 50000 nM
UACC-257
  growth at 10 µM: -52.9%
A498
  GI50: 958 nM
  IC50: 960 nM
  TGI: 4040 nM
A498; [20]
  CC50: > 50000 nM
MCF7 [15]
  growth at 10 µM: -6.3%
U-251
  growth at 10 µM: -82.2%
DU-145 [16]
  growth at 10 µM: 9.75%
SN12C
  growth at 10 µM: 7.22%
RPMI-8226
  GI50: 340 nM
  IC50: 340 nM
  TGI: 3120 nM
RPMI-8226; [20]
  CC50: > 50000 nM
[17]
  growth at 10 µM: -13.7%
IGROV-1 [18]
  GI50: 1060 nM
  LC50 (concentration killing 50% of cells): 50000 nM
  TGI: 3110 nM
OVCAR-5 [19]
  growth at 10 µM: 28.2%
